This note sets out measurements from US11179437B2, “COP9 signalosome (CSN) complex modulators and uses thereof” (Yeda Research and Development Co. Ltd., priority 2017, dated 2021).

Test [1] concerns HAP1 cells. Put plainly: Cell cycle analysis by flow cytometry (double thymidine block or asynchronous BrdU/propidium iodide). In kind it is cell-based, human. The following applies: WT cells expressing or exposed to the C-terminal CSNAP segment; release from double thymidine block (FIG. 9). In general terms: In flow cytometry, cells or beads pass a laser one at a time.
Experimental: UV treated cells were exposed to 5 J/m^2 dose at release, and fixed with ethanol at different time points. Cell cycle phases were assessed by flow cytometry (LSRII, BD Biosciences) following propidium iodide staining. Asynchronous cells were analyzed using propidium iodide and BrdU double staining. 10^5 cells were denatured after fixation using 2N HCl, 0.5% Triton X-100 in PBS for 30 minutes, neutralized in 0.1M Na2B4O7 pH8.5 and incubated with 5 μl of anti-BrdU-FITC (eBioscience 11-5071-41) 1% BSA, 0.5% Triton X-100 in PBS for 1 hour. Cells were washed in 1% BSA in PBS and resuspended in PBS containing 50 μg/ml propidium iodide and 50 μg/ml RNAse A, and analyzed in FACSAria Fusion flow cytometer (BD Biosciences).
Test [2] relates to cells. Put plainly: Cell death in cells exposed to the C-terminal peptide. The class given is cell-based.

With “DFFNDFEDLFDDDDIQ [C-terminal peptide, peptide comprising the C-terminal region of CSNAP, responsible for assembly into the CSN complex]”, the cell cycle progression entry in test [1] was “capable of preventing cell cycle progression”. Besides, the “induction of cell death” value in test [2] is “induce cell death”.
